Assay [1] has as its target T1, human TNFR1 extracellular domain (ECD) protein (Homo sapiens, UniProt P19438).
T1 construct: HRV 3C protease cleavage site (C); 6His (C, cleaved yes); made in house; host or cells: Sf21 insect cells (baculovirus), secreted
T1 sequence (P19438 30-211): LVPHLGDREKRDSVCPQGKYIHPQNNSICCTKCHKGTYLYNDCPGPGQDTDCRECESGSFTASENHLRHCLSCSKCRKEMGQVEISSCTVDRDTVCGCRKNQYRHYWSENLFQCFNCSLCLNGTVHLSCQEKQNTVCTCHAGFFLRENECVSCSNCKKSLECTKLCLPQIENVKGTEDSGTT
Nature of the assay: SPR binding affinity to captured human TNFR1 ECD. The method, boiled down:
(§1)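 Peptide binding kinetics read by SPR in HEPES pH 7.4 running buffer with 2% DMSO, with TNFR2 ECD tested in parallel for off-target binding. Receptor ECDs, insect-cell expressed and biotinylated at C-terminal avi-tag, were captured via streptavidin. KA derived from association and dissociation rate constants.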

Assay [2] concerns the target T2, TNFα-induced NF-κB signal transduction pathway (TNFR1 signaling) in THP-1 cells (Homo sapiens, UniProt P19438).
T2 sequence (P19438 30-455): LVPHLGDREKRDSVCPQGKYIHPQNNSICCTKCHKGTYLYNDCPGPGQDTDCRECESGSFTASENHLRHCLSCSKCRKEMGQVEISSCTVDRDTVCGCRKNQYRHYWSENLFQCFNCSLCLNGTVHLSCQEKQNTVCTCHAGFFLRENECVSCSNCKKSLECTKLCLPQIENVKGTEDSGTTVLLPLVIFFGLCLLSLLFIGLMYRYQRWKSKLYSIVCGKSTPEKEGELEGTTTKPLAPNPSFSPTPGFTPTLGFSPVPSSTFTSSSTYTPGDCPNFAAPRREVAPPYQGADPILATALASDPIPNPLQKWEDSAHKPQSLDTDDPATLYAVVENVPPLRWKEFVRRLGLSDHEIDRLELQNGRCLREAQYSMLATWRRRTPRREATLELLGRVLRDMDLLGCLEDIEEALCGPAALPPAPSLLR
Nature of the assay: THP-1 Lucia NF-κB reporter cell assay, inhibition of TNFα-induced NF-κB signaling. Type of assay: cell-based. Conditions: THP-1 NF-κB Lucia reporter cells, 10 ng/mL TNFα, 16-18 h, secreted luciferase; read-out: THP-1 IC50. The method, boiled down:
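IC50 from a 4-parameter logistic fit of secreted luciferase luminescence (QUANTI-Luc), normalised to min/max controls. Reporter THP-1 cells were exposed to peptides for 1 h at 37 °C before 10 ng/mL TNFα (final) was added overnight (16–18 h).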

Another assay addresses T3, human TNFR2 ECD protein (Homo sapiens, UniProt P20333).
T3 construct: HRV 3C protease cleavage site (C); 6His (C, cleaved yes); made in house; host or cells: Sf21 insect cells (baculovirus), secreted
T3 sequence (P20333 23-257): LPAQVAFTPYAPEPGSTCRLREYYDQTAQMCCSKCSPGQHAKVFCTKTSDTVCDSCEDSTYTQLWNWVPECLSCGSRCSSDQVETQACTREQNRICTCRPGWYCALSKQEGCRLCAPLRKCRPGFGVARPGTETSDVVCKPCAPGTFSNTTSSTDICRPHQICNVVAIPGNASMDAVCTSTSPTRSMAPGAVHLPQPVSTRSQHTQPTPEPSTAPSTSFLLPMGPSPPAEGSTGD
The assay can be described thus: SPR off-target binding (selectivity) to human TNFR2 ECD. An outline of the steps:
as §1

Assay [3] deals with T4, human soluble TNFR1 (sTNFR1) (Homo sapiens, UniProt P19438).
T4 construct: made in house; host or cells: Sf21 (baculovirus)
T4 sequence (P19438 with tags, fused parts or gaps): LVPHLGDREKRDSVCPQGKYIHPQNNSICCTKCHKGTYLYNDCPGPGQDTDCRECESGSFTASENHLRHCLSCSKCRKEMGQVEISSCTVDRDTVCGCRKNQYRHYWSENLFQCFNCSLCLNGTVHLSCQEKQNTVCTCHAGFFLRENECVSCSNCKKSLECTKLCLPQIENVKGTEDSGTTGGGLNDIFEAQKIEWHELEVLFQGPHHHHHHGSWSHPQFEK
The assay can be described thus: Human sTNFR1-peptide displacement assay (LanthaScreen Eu TR-FRET binding assay). An outline of the steps:
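Readout is the 665/615 nm TR-FRET ratio (Eu anti-His donor, streptavidin-Alexa647 acceptor), normalized to DMSO and saturating displacer, fit by Morrison-based five-parameter logistic for Kd^app. His-tagged sTNFR1 (1-211) prebound to 100 nM biotinylated peptide SEQ ID NO.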
(In general: Time-resolved FRET reads energy transfer from a long-lived donor to a nearby acceptor.)

pIC50, pKd: −log10 of the molar value. Like-named read-outs stand apart in the source and are kept apart here. Numbered stars: 1 amine (or outer) side, 2 acyl side, 3 side chain; on linkers, the order of the positions; unused ones are H or OH. Bridge positions count the residues as written; N and C are the ends. Square brackets hold non-standard residues; d marks the D form. Peptide text beside a SMILES is read from it. Trp(βS-Me,7-OMe) = COc1cccc2c([C@H](C)[C@H](N)C(=O)O)c[nH]c12; Ala(indazol-1-yl) = N[C@@H](Cn1ncc2ccccc21)C(=O)O; Trp(7-Cl) = N[C@@H](Cc1c[nH]c2c(Cl)cccc12)C(=O)O; X11 = O=C(O)C[C@@H]1C[C@H](C(=O)[*:2])N([*:1])C1; Phe(4-CONH2) = NC(=O)c1ccc(C[C@H](N)C(=O)O)cc1; Phe(4-COOH) = N[C@@H](Cc1ccc(C(=O)O)cc1)C(=O)O; Trp(7-aza) = N[C@@H](Cc1c[nH]c2ncccc12)C(=O)O; Phe(4-CH2NH2) = NCc1ccc(C[C@H](N)C(=O)O)cc1; Trp(1-Me) = Cn1cc(C[C@H](N)C(=O)O)c2ccccc21; Pip(5R-OH) = O=C(O)[C@@H]1CC[C@@H](O)CN1; X1 = O=C([C@@H]1CC[C@H](N[*:1])C1)[*:2]; NHCH2CH2SCH2CO = O=C(CSCCN[*:1])[*:2]; hPhe = N[C@@H](CCc1ccccc1)C(=O)O; 4Pal = N[C@@H](Cc1ccncc1)C(=O)O; NMeE = CN[C@@H](CCC(=O)O)C(=O)O; αMeS = C[C@](N)(CO)C(=O)O; NMeA = CN[C@@H](C)C(=O)O; Nle = CCCC[C@H](N)C(=O)O; Sar = CNCC(=O)O

One may read the pKd as the Kd on a negative log10 scale, so that one unit is a factor of ten. In general, pIC50 refers to the negative decadic logarithm of the IC50, by convention in mol/L.

With `CCCC[C@@H]1NC(=O)[C@@H]2CC[C@@H](C2)NC(=O)[C@H]([C@@H](C)c2c[nH]c3c(OC)cccc23)NC(=O)CN(C)C(=O)[C@H](Cc2ccc(C(=O)O)cc2)NC(=O)[C@H](Cc2ccc(C(N)=O)cc2)NC(=O)[C@](C)(CO)NC(=O)[C@H](Cc2c[nH]c3c(Cl)cccc23)NC(=O)[C@H](Cc2ccc(C(=O)O)cc2)NC(=O)[C@H](CC(N)=O)NC(=O)[C@H]2C[C@@H](CC(=O)O)CN2C(=O)[C@H](Cc2c[nH]c3ccccc23)NC(=O)[C@@H]2CC[C@@H](O)CN2C(=O)[C@H](Cc2ccncc2)NC1=O` [SEQ ID NO. 132] (cyclo([4Pal][Pip(5R-OH)]W[X11]N[Phe(4-COOH)][Trp(7-Cl)][αMeS][Phe(4-CONH2)][Phe(4-COOH)][Sar][Trp(βS-Me,7-OMe)][X1][Nle])), the pKd in assay [1] was 10.10; at human TNFR2 ECD protein it was < 6.00. Further, the pIC50 in assay [2] is 9.15.

As for `CCCC[C@@H]1NC(=O)CSC[C@@H](C(N)=O)NC(=O)[C@H]([C@@H](C)c2c[nH]c3c(OC)cccc23)NC(=O)CN(C)C(=O)[C@H](Cc2ccc(O)cc2)NC(=O)[C@H](Cc2ccc(C(N)=O)cc2)NC(=O)[C@](C)(CO)NC(=O)[C@H](Cc2c[nH]c3c(Cl)cccc23)NC(=O)[C@H](Cc2ccncc2)NC(=O)[C@H](CC(N)=O)NC(=O)[C@H](CCC(=O)O)N(C)C(=O)[C@H](Cc2cn(C)c3ccccc23)NC(=O)[C@@H]2CC[C@@H](O)CN2C(=O)[C@H](Cc2ccncc2)NC1=O` [SEQ ID NO. 151] ({CH2CO}-[Nle][4Pal][Pip(5R-OH)][Trp(1-Me)][NMeE]N[4Pal][Trp(7-Cl)][αMeS][Phe(4-CONH2)]Y[Sar][Trp(βS-Me,7-OMe)]C-NH2; thioether N-14), the figures for the pKd (in assay [1]; at human TNFR2 ECD protein; in assay [3]) were 10.40, < 6.00 and 9.96, respectively. The molecule further gave a pIC50 in assay [3] of 9.54.

As for `CCCC[C@@H]1NC(=O)CSCCNC(=O)[C@H]([C@@H](C)c2c[nH]c3c(OC)cccc23)NC(=O)CN(C)C(=O)[C@H](Cc2ccc(O)cc2)NC(=O)[C@H](Cc2ccc(C(=O)O)cc2)NC(=O)[C@](C)(CO)NC(=O)[C@H](Cc2c[nH]c3c(Cl)cccc23)NC(=O)[C@H](Cc2ccncc2)NC(=O)[C@H](CC(N)=O)NC(=O)[C@H](CCC(=O)O)N(C)C(=O)[C@H](Cc2c[nH]c3ncccc23)NC(=O)[C@H](CO)NC(=O)[C@H](Cc2ccc(CN)cc2)NC1=O` [SEQ ID NO. 258] (cyclo([4Pal][Trp(7-Cl)][αMeS][Phe(4-COOH)]Y[Sar][Trp(βS-Me,7-OMe)][NHCH2CH2SCH2CO][Nle][Phe(4-CH2NH2)]S[Trp(7-aza)][NMeE]N)), the pKd was 9.70 in assay [1] and < 6.00 on human TNFR2 ECD protein. Also, the pIC50 in assay [2] was 7.94.

As to `C[C@H]1C(=O)N[C@@H](CC(N)=O)C(=O)N[C@@H](Cc2ccncc2)C(=O)N[C@@H](Cc2c[nH]c3ccccc23)C(=O)N[C@@](C)(CO)C(=O)N[C@@H](Cc2ccc(C(=O)O)cc2)C(=O)N[C@@H](Cc2ccc(O)cc2)C(=O)N(C)CC(=O)N[C@@H](Cc2c[nH]c3ccccc23)C(=O)N[C@H](C(N)=O)CSCC(=O)N[C@@H](CCc2ccccc2)C(=O)N[C@@H](Cc2ccc(O)cc2)C(=O)N[C@@H](CO)C(=O)N[C@@H](Cn2ncc3ccccc32)C(=O)N1C` [SEQ ID NO. 265] ({CH2CO}-[hPhe]YS[Ala(indazol-1-yl)][NMeA]N[4Pal]W[αMeS][Phe(4-COOH)]Y[Sar]WC-NH2; thioether N-14), the pKd is 9.00 in assay [1] (biotinylated human TNFR1 ECD on streptavidin chip, from kon and koff, read-out: SPR hTNFR1 KD); < 6.00 on human TNFR2 ECD protein (biotinylated human TNFR2 ECD on streptavidin chip, read-out: SPR hTNFR2 KD). In assay [2], the negative-log IC50 (pIC50) was 8.31.

The record behind these values is patent publication US20240287138A1, “CYCLIC PEPTIDES FOR INHIBITING TNF RECEPTOR 1 ACTIVITY” (Merck Sharp & Dohme LLC, priority 2023, published 2024).
